For 2 molecules, AC50 results are on record in ChEMBL document CHEMBL5291721, “A preclinical secondary pharmacology resource illuminates target-adverse drug reaction associations of marketed drugs” (Nat Commun, 2023).

Broadly, the AC50 is the concentration giving half of the maximal activity seen.

Among the targets are Vasopressin V1a receptor (Homo sapiens, UniProt P37288); Histamine H1 receptor (Homo sapiens, UniProt P35367); Histamine H3 receptor (Homo sapiens, UniProt Q9Y5N1).
The target of assay [1] is T1, Cholecystokinin receptor type A (Homo sapiens, UniProt P32238).
T1 sequence (P32238 whole entry): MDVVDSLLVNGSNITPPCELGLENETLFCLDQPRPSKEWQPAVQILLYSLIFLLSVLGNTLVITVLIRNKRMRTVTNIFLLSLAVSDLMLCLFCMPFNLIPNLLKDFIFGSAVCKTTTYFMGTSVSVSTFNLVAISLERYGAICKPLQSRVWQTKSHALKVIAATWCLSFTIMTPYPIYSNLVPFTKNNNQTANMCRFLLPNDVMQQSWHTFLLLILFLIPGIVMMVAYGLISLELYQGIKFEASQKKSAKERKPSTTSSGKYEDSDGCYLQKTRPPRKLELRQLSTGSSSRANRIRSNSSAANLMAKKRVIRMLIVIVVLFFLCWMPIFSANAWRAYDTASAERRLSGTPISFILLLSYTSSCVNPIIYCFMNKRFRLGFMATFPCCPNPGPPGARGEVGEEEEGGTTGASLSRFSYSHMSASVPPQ

A further assay addresses T2, B2 bradykinin receptor (Homo sapiens, UniProt P30411).
T2 sequence (P30411 whole entry): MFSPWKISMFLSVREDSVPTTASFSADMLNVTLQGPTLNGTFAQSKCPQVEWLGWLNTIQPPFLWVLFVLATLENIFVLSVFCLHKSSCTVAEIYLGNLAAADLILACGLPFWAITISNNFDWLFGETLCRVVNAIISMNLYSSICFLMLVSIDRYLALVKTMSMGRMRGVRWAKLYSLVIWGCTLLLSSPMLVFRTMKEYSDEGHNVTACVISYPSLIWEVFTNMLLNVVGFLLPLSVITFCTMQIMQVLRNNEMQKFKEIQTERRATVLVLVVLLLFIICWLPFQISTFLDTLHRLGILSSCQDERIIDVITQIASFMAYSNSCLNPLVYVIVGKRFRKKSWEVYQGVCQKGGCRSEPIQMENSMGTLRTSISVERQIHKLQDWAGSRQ

Assay [2] concerns the target T3, Alpha-2A adrenergic receptor (Homo sapiens, UniProt P08913).
T3 sequence (P08913 whole entry): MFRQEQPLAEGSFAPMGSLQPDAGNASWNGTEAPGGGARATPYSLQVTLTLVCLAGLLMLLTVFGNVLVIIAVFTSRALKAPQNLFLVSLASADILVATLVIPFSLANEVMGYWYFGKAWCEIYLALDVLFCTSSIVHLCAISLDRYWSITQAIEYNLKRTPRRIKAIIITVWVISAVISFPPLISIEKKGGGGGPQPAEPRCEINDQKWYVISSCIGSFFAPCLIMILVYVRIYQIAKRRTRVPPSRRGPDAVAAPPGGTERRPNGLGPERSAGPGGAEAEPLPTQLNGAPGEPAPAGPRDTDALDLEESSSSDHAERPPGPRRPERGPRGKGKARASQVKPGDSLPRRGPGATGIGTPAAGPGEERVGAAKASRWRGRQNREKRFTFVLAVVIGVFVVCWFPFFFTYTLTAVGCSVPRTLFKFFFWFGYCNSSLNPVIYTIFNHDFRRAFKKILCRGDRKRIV
It is filed as functional, cell-based.

In assay [3] the target is cGMP-inhibited 3',5'-cyclic phosphodiesterase 3A (Homo sapiens, UniProt Q14432). The format is functional.
In a further assay the target is T4, Adenosine receptor A1 (Homo sapiens, UniProt P30542).
T4 sequence (P30542 whole entry): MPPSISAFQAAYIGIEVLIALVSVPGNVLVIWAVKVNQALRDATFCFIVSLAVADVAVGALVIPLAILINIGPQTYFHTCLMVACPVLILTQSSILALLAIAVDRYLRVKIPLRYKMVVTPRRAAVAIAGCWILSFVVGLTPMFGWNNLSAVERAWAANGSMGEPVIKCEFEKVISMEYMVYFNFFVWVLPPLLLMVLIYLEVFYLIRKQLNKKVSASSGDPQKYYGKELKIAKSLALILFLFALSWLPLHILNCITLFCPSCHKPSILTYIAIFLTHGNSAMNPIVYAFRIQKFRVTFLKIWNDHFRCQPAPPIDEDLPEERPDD

Assay [4] has as its target 5-hydroxytryptamine receptor 2B (Homo sapiens, UniProt P41595). The format is functional, cell-based.
Assay [5] has as its target T5, Equilibrative nucleoside transporter 1 (Homo sapiens, UniProt Q99808).
T5 sequence (Q99808 whole entry): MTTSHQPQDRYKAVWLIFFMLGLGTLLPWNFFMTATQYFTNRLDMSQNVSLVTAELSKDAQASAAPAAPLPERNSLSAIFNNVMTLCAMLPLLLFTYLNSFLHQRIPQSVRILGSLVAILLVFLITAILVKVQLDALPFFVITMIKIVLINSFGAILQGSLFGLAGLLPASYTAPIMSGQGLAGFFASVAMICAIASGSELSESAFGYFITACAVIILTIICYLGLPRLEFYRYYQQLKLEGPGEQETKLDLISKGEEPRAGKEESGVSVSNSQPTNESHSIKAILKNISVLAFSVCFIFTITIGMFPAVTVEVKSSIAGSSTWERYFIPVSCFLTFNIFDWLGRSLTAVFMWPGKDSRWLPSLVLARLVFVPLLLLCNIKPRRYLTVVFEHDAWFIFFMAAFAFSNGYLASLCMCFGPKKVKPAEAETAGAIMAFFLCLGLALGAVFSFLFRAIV

Assay [6] concerns the target Glutamate receptor ionotropic, NMDA 1 (Rattus norvegicus, UniProt P35439).
For assay [7], the target named is Voltage-dependent L-type calcium channel subunit alpha-1C (Rattus norvegicus, UniProt P22002). It is filed as functional.
In assay [8] the target is Neuronal acetylcholine receptor subunit alpha-4 (Homo sapiens, UniProt P43681).

Bounds are passed on as bounds.
Also: assay procedure not described here.

Chain of Vasopressin V1a receptor (P37288 whole entry): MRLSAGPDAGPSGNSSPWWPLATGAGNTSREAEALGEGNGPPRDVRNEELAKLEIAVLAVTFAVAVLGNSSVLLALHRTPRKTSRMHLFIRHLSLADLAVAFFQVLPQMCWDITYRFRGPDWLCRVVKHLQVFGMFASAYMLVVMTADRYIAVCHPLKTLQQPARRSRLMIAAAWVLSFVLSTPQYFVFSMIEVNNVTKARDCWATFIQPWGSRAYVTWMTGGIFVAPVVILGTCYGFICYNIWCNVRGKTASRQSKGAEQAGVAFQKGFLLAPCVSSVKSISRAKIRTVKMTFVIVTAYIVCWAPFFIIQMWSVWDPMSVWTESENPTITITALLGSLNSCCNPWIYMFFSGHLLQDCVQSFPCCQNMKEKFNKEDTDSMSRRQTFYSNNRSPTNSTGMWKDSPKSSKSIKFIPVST
Chain of Neuronal acetylcholine receptor subunit alpha-4 (P43681 whole entry): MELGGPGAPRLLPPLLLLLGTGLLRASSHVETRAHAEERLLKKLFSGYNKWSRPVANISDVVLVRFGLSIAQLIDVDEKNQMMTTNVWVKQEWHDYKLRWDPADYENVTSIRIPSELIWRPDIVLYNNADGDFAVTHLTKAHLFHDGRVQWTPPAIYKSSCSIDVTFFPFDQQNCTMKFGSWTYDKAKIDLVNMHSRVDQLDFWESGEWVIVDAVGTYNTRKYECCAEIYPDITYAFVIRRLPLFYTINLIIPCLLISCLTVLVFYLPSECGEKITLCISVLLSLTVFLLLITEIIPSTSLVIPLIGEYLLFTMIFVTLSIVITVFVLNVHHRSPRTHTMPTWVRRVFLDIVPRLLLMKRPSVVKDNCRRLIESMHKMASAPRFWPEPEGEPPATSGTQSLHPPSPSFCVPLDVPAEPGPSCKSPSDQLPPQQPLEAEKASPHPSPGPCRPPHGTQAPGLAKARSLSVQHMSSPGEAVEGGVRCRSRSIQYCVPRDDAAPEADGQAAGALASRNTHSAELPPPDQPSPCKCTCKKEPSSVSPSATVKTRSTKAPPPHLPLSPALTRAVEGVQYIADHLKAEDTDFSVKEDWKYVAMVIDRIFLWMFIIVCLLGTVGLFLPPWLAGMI
Chain of Histamine H1 receptor (P35367 whole entry): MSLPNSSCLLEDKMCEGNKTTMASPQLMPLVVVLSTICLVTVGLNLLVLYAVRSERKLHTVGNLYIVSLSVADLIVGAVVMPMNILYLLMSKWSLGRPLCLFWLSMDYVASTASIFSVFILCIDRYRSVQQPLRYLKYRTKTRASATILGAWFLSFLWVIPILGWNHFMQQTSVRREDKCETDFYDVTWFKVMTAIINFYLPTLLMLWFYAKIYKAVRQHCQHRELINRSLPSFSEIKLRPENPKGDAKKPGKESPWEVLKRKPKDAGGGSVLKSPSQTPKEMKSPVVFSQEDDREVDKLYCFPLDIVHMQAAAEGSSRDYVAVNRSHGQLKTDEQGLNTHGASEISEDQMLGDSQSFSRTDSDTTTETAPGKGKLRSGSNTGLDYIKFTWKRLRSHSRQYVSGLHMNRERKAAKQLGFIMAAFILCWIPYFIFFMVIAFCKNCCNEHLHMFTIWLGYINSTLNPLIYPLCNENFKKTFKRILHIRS
Chain of cGMP-inhibited 3',5'-cyclic phosphodiesterase 3A (Q14432 whole entry): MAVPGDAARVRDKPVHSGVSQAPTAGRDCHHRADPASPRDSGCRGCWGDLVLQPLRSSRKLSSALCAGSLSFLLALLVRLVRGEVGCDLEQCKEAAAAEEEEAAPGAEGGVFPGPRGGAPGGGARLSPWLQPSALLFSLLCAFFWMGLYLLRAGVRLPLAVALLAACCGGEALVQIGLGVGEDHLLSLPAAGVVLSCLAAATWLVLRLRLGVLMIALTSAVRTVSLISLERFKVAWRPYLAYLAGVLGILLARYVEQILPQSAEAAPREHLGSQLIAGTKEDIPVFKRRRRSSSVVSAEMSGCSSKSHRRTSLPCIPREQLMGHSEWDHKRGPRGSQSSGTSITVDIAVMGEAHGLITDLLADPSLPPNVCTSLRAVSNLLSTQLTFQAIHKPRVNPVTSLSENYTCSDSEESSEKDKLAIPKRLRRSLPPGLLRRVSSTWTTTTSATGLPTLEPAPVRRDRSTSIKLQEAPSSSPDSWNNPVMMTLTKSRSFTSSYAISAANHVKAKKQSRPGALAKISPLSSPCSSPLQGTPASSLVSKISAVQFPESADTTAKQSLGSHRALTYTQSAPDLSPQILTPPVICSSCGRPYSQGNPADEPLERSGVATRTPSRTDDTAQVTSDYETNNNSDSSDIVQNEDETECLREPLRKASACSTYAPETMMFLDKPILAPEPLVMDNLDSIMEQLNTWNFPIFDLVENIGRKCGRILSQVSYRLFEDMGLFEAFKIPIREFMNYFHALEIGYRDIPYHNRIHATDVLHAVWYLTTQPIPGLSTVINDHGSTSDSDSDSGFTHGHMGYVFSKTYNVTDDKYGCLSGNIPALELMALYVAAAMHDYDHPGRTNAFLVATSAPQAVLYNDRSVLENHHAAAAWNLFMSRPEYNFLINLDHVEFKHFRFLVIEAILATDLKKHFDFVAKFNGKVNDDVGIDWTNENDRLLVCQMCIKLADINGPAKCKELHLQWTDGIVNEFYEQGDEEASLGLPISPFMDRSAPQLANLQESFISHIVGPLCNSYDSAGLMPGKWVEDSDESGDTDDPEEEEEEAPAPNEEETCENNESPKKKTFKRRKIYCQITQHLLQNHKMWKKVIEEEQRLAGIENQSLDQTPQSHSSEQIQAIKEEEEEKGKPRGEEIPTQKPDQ
Chain of Histamine H3 receptor (Q9Y5N1 whole entry): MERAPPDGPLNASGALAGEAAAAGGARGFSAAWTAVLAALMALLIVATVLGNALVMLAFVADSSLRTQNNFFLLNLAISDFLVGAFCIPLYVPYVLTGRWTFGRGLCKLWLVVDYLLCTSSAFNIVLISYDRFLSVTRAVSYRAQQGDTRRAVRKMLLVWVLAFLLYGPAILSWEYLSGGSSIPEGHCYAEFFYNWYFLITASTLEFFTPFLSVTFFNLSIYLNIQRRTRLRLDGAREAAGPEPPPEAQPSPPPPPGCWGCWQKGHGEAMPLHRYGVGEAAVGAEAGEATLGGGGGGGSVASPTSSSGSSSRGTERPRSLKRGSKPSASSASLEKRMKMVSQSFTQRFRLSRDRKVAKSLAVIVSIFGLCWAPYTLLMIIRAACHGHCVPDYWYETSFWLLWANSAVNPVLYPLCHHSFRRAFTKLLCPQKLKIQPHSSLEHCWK
Chain of 5-hydroxytryptamine receptor 2B (P41595 whole entry): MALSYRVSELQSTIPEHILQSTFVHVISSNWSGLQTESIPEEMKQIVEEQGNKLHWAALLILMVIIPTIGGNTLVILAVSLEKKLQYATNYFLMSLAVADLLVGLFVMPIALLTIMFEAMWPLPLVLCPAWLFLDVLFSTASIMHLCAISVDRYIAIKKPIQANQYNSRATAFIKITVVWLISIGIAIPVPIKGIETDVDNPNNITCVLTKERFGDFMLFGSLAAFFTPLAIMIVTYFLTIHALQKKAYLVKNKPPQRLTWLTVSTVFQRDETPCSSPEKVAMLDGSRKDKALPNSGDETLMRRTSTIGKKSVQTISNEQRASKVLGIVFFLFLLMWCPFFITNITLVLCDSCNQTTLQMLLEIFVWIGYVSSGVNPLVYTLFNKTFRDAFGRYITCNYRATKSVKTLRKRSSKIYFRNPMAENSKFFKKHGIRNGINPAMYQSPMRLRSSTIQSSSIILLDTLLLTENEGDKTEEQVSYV

For `COc1ccc2nc3cc(Cl)ccc3c(Nc3cc(CN4CCCC4)c(O)c(CN4CCCC4)c3)c2n1` [PYRONARIDINE], the AC50 on Vasopressin V1a receptor is greater than 30 µM; in [1], greater than 30 µM; on Histamine H1 receptor it was 21 µM; on B2 bradykinin receptor, greater than 30 µM; in assay [2] it was greater than 30 µM; in [3], 5.7 µM. Besides, the AC50 at Adenosine receptor A1 was greater than 30 µM; in assay [4] it was greater than 30 µM; in [5], 21 µM; at Histamine H3 receptor it was greater than 30 µM; in assay [6], greater than 30 µM; in [7] it was greater than 30 µM. In assay [8], this molecule displayed an AC50 of 26 µM.
Consider `CC1=C(C)C(=O)C(C(CCCCCC(=O)O)c2ccccc2)=C(C)C1=O` (stereo unspecified) [SERATRODAST], for which the AC50 at Vasopressin V1a receptor is greater than 30 µM; in [1] it was greater than 30 µM; at Histamine H1 receptor it was greater than 30 µM; on B2 bradykinin receptor, greater than 30 µM; in [2] it was greater than 30 µM; in assay [3], 25 µM. Further, the AC50 (on Adenosine receptor A1; in [4]; in assay [5]; on Histamine H3 receptor; in assay [6]; in assay [7]) was greater than 30 µM each time. In addition, the AC50 in [8] was greater than 30 µM.
